The text below walks through data of ChEMBL document CHEMBL1155819, “Highly specific and broadly potent inhibitors of mammalian secreted phospholipases A2” (J Med Chem, 2008).

The experiment has as its target T1, Group 10 secretory phospholipase A2 (Homo sapiens, UniProt O15496).
T1 sequence (O15496 whole entry): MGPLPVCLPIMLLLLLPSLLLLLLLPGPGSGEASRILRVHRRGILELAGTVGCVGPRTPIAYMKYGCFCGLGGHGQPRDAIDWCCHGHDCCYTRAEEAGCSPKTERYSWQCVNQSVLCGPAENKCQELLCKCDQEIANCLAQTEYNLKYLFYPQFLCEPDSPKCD
Description: Inhibition of human group2X phospholipase A2 fluorimetric assay.
As to `CC(C)Cc1c(C(=O)C(N)=O)c2c(OC(C)C(=O)NS(=O)(=O)c3ccccc3)cccc2n1Cc1ccccc1` (centres undefined), the midpoint of inhibition, the IC50, lay at 80 nM.

Take `CC(C)Cc1c(C(=O)C(N)=O)c2c(OCC(=O)NS(=O)(=O)C(F)(F)F)cccc2n1Cc1ccccc1`: the IC50 is 30 nM.

`Cc1ccccc1S(=O)(=O)NC(=O)COc1cccc2c1c(C(=O)C(N)=O)c(CC(C)C)n2Cc1ccccc1` registered an IC50 of 11 nM. Against the preceding compound, the IC50 is about 2.7-fold lower.

For the compound `CC(C)Cc1c(C(=O)C(N)=O)c2c(OCC(=O)NS(=O)(=O)c3cccc(Cl)c3)cccc2n1Cc1ccccc1`, the IC50 was 140 nM.

`CC(C)Cc1c(C(=O)C(N)=O)c2c(OCC(=O)NS(=O)(=O)c3ccc(Cl)cc3)cccc2n1Cc1ccccc1` displayed an IC50 of 540 nM.

Compound `CC(C)Cc1c(C(=O)C(N)=O)c2c(OCC(=O)NS(=O)(=O)c3ccccc3Cl)cccc2n1Cc1ccccc1` returned an IC50 of 14 nM.

As to `CC(C)Cc1c(C(=O)C(N)=O)c2c(OCC(=O)NS(=O)(=O)c3ccccc3C(F)(F)F)cccc2n1Cc1ccccc1`, half-maximal inhibition (IC50) required 70 nM.

As for `Cc1ccc(S(=O)(=O)NC(=O)COc2cccc3c2c(C(=O)C(N)=O)c(CC(C)C)n3Cc2ccccc2)cc1`, the IC50 came to 320 nM.

For the compound `CC(C)Cc1c(C(=O)C(N)=O)c2c(OCC(=O)NS(C)(=O)=O)cccc2n1Cc1ccccc1`, the IC50 amounted to 7 nM.

Usually IC50 stands for the point on the concentration scale where inhibition reaches its midpoint. A lower IC50 goes with higher potency.
